Measurements as given in patent US8436020B2, “Processes for the preparation of piperidinic derivatives and pharmaceutic compositions containing the same” (priority 2004, dated 2013).
Several values for one entry are separate records, joined by “and”; a condition that tells them apart may be missing. Equal values may be shown once. Entries after “also recorded” stand apart in the source; their conditions may differ. Read-outs that look alike come from different tables or passages of the source.

Tests used:
BuChE = BuChE (Homo sapiens, UniProt P06276); conditions: arisugacines and cyclopenine: no BuChE inhibition at this multiple; cyclophostin: BuChE inhibited at this multiple; cited from earlier work
Chain of BuChE (P06276 29-602): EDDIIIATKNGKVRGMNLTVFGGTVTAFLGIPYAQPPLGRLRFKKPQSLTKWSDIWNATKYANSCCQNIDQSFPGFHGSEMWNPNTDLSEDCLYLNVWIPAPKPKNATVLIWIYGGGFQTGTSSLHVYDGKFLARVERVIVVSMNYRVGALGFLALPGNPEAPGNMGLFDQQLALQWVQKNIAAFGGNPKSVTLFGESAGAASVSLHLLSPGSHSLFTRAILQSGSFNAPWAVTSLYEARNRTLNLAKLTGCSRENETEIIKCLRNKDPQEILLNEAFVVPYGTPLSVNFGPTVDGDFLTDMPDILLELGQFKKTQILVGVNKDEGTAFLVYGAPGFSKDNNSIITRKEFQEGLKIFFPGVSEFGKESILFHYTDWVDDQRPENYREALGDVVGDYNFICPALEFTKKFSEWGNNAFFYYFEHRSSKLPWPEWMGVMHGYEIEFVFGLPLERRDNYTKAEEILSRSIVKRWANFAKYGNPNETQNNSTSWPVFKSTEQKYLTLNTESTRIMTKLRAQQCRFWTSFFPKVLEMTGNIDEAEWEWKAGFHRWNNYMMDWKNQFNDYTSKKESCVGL

AChE [1] = target: T1, AChE (Homo sapiens, UniProt P22303); conditions: read-out: IC50, AChE; cited from earlier work
T1 sequence (P22303 32-614): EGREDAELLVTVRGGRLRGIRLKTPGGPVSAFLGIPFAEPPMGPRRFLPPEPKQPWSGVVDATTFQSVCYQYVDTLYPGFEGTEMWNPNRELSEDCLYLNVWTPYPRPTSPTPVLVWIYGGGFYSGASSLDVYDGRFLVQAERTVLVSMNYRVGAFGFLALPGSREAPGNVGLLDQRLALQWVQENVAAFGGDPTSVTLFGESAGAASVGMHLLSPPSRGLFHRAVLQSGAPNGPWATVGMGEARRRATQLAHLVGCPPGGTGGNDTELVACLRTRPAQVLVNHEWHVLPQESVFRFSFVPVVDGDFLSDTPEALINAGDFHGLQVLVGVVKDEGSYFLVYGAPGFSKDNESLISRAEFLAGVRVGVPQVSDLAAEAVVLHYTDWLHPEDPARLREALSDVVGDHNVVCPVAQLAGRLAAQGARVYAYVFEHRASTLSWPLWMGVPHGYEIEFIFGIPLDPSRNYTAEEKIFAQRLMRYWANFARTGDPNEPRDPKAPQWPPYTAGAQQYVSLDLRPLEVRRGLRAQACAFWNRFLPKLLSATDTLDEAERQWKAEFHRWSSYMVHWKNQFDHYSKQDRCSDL

AChE [2] = target: T1, AChE; conditions: read-out: IC50, AChE activity; cited from earlier work
AChE [3] = target: T1, AChE; conditions: cited from earlier work; for IC50: read-out: IC50 AChE, tacrine as positive control
[4] = Water solubility of the chlorhydrate derivatives
[5] = Cholinergic side effects (diarrhea) 30 minutes after administration, rats; format: in vivo
From the text: Results from this assay can be seen in FIGS. 8-9.

[6] = format: in vivo, mice
[7] = tested on: amnesia induced by scopolamine; test: Amnesia induced by scopolamine in the Morris water maze; format: in vivo, Wistar rats; conditions: rats, scopolamine 1 mg/kg, 4 days test
Method: A total of 39 Wistar rats (females—±200 g) were used.
After 30 minutes of intraperitoneal second administration (saline or scopolamine), the animals were challenged to localize an underwater platform in a round recipient containing opaque water (water maze) and the escape latency (in seconds) was computed. […] Tests were conducted twice a day, during 4 consecutive days.
When treated with scopolamine 30 minutes before the challenge, the animals could not learn the task and the escape latency approaches maximum values (150 s) in the fourth day of the test.

[8] = tested on: amnesia induced by scopolamine; test: Amnesia induced by scopolamine in the inhibitory avoidance assay; format: in vivo, Swiss mice; conditions: mice
From the text: A total of 120 adult male (25-30 g) Swiss mice were used. The animals were submitted to the inhibitory avoidance assay, which consists of a box with a base made of a grid connected to an electrostimulator (0.6 mA/3 s), and containing a wood platform (3 cm^3). Mice were put over this platform; being computed the latency (in seconds) until the animals put the four paws over the grid. In the first day of the test (“training”), animals would receive an adverse electrical stimulus (0.6 mA/3 s) whenever they stepped down to the grid (step down latency—SDL). At this stage, animals that would stay more than 15 seconds over the platform were discarded. Twenty-four hours later, the animals were re-introduced over the platform and the SDL computed (“retention”).

[9] = target: cholinesterase in homogenized rat brain (Rattus norvegicus, UniProt P37136); conditions: for IC50: rat brain homogenate
Chain of cholinesterase in homogenized rat brain (P37136 32-614): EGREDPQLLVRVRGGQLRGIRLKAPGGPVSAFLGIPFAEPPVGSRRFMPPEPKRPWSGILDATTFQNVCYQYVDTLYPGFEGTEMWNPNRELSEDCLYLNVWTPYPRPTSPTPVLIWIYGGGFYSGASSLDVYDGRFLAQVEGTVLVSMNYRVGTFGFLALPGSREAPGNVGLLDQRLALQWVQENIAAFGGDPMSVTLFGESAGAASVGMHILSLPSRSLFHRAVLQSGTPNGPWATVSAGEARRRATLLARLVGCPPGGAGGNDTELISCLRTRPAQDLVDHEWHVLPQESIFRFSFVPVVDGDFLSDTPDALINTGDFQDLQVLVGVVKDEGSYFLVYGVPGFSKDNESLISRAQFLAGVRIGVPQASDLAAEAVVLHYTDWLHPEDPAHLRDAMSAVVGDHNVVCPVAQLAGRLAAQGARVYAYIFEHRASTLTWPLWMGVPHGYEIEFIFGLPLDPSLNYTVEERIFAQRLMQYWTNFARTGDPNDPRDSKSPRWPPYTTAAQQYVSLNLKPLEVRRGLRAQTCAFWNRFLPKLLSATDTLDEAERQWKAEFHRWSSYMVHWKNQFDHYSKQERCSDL
Method: In all experiments, cholinesterase-independent substrate hydrolysis (non specific) was determined by the inclusion of an experimental group treated with THA 20 μM. Appropriate tissues and reagents (em branco) were also included. Reaction velocities were determined in 3 or 4 repetitions by condition; mean values were calculated and expressed as percentages of relative activity in respect to control (solvent), after subtraction of the non-specific hydrolysis rate. The substances were tested in at least five different concentrations. From the resulting inhibition curve, values in the ranges […] 20%-80% were considered, with concentration limited to 500 μM. The IC50, based in a single-site model, was determined via linear regression.

AChE [10] = target: T1, AChE; conditions: read-out: IC50, anticholinesterasic activity; cited from earlier work
AChE [11] = target: T1, AChE; conditions: cited from earlier work
[12] = target: butyrylcholinesterase (BuChE) (Homo sapiens, UniProt P06276); conditions: read-out: IC50 BuChE; cited from earlier work
Chain of butyrylcholinesterase (BuChE) (P06276 29-602): as the sequence (P06276 29-602) above

[13] = read-out: Experimental IC50, cerebral cholinesterase inhibition, single independent experiment (one animal), acetylthiocholine 1 mM
[14] = read-out: Mean IC50, cerebral cholinesterase inhibition, mean of N independent experiments

In the case of `CN1C(=O)c2ccccc2NC(=O)[C@]12O[C@@H]2c1ccccc1` [cyclopenine], the “Concentration tested on BuChE as a multiple of the AChE IC50 (selectivity)” value (BuChE) is given as > 2,000 times and the IC50 (AChE [1]) is given as 2.04 µM.

For `C/C(=C\CNc1ncnc2nc[nH]c12)CO` [zeatine], the IC50 (AChE [2]) is given as 109 µM.

For `CC[C@H](C)[C@H]1NC(=O)c2c1n(C)c1ccccc1c2=O` [quinolactacin A1], the IC50 (AChE [3]) is listed as 280 µM.

With `CC(=O)CCCCCCCCCCCC[C@H]1CC[C@@H](OC(C)=O)[C@@H](C)N1.Cl` [LASSBio-767, 2-(R)-methyl-3-(R)—O-acetyl-6-(S)-(tetradecyl-13′-one)-piperidine chlorhydrate] the Solubility in water [4] was “water-soluble”, the Occurrence of diarrhea [5] was “Only animals treated with tacrine presented diarrhea” and the “Cholinergic side effects and motor activity” value ([6]; 10 mg/kg) was “no cholinergic side effects and no interference in the motor activity”. The “Reversion of amnesia induced by scopolamine, escape latency in water maze” value (from here on “Reversion of amnesia induced … in water maze”) ([7]; 1 mg/kg) was “superior effect in relation to tacrine in the reversion of the induced amnesia by scopolamine”, the “Reversion of amnesia induced … in water maze” value ([7]; 10 mg/kg) was “also observed” and the “Reversion of amnesia induced by scopolamine, step down latency” value (“Reversion … step down latency” for short) ([8]; 1 and 10 mg/kg, scopolamine 1 mg/kg) was “do not differ from the ones treated only with scopolamine; also recorded: did not present any effect on the amnesia induced by scopolamine”. The “AChE inhibitory capacity ex vivo” value [9] was “remarkable anticholinesterasic activity”, the IC50 [9, 13] was 4.82 µM and 4.49 µM and the IC50 [9, 14] was 4.65 µM.

In the case of `C=C1CC[C@H]2C(C)(C)[C@@H](O)CC[C@]2(C)[C@H]1CC[C@H]1C(=C)CC[C@H]2C(C)(C)[C@@H](O)CC[C@]12C` [α-onocerine, α-onocerin], the IC50 (AChE [10]) is given as 5.2 µM.

With `CC(=O)CCCCCCCCCCCC[C@H]1CC[C@@H](O)[C@@H](C)N1.Cl` [LASSBio-768, Espectaline Chlorhydrate] the Solubility in water [4] was “water-soluble”, the “AChE inhibitory capacity ex vivo” value [9] was “remarkable anticholinesterasic activity” and the IC50 [9, 13] was 195 µM and 278 µM. The IC50 [9, 14] was 236 µM.

In the case of `CO[P@]1(=O)OC[C@H]2COC(=O)C2=C(C)O1` [cyclophostin], the “Concentration tested on BuChE as a multiple of the AChE IC50 (selectivity)” value (BuChE) is listed as 35 times and the IC50 (AChE [1]) is listed as 0.0013 µM.

For `CC(=O)O[C@@H]1CC[C@H](CCCCCCCCCCCCC(C)O)N[C@@H]1C` (stereo partly drawn) [LASSBio-783, (2R,3R,6S)-3-acetoxy-6-(13-hydroxy-tetradecyl-2-methyl)-piperidine chlorhydrate], the IC50 [9, 13] was 333 µM and 702 µM and 242 µM and the IC50 [9, 14] was 426 µM.

In the case of `COc1cc(-c2cc3c(c(=O)o2)C[C@]2(O)[C@@]4(C)C(=O)C=CC(C)(C)[C@]4(O)CC[C@@]2(C)O3)cc(OC)c1OC` [territrem B], the “Potency relative to neostigmine in AChE inhibition” value (AChE [11]) is listed as “approximately 20 times” and the IC50 (AChE [1]) is listed as 0.0076 µM.

For `Nc1c2c(nc3ccccc13)CCCC2` [Tacrine, tacrine, reference compound], the Animals with diarrhea ([5]; 1 mg/kg) was 100%, the “Mice with diarrhea and urination” value ([6]; 10 mg/kg I.P., mice) was 70% and the “Other side effects observed” value ([6]; 10 mg/kg I.P., mice) was “hypothermia and diminished motor activity”. For the same molecule, the “Cholinergic side effect parameters” value ([6]; concentrations superior to 30 mg/kg, mice) was “all checked parameters are altered”, the “Reversion of amnesia induced … in water maze” value ([7]; 1 mg/kg) was “antagonize the induced amnesia by scopolamine, a significant effect in the fourth day of the study” and the “Reversion … step down latency” value ([8]; 5.6 mg/kg) was “complete reversion of the amnesia induced by scopolamine; also recorded: totally reversed the effect of scopolamine”.

In the case of `COc1cc(-c2cc3c(c(=O)o2)C[C@]2(O)[C@@]4(C)C(=O)C=CC(C)(C)[C@]4(O)CC[C@@]2(C)O3)cc(OC)c1O` [territrem C], the IC50 (AChE [1]) is listed as 0.0068 µM.

In the case of `CC[C@H](C)[C@@H]1NC(=O)c2c1n(C)c1ccccc1c2=O` [quinolactacin A2], the “Inhibitory AChE activity relative to diastereoisomer A1” value (AChE [3]) is given as 14 times, the IC50 (AChE [3]) is given as 19.8 µM and the IC50 [12] is given as 650 µM.

For `CC(=O)CCCCCCCCCCCC[C@H]1CC[C@@H](OC(=O)OC(C)(C)C)[C@@H](C)N1.Cl` [LASSBio-822, 2-(R)-methyl-3-(R)—O-ter-butoxycarbonyl-6-(S)-(tetradecyl-13′-one)-piperidine chlorhydrate], the Solubility in water [4] was “water-soluble”, the “Reversion of amnesia induced … in water maze” value ([7]; 1 mg/kg) was “not capable of antagonize the amnesia induced by scopolamine” and the “Reversion … step down latency” value ([8]; 1 and 3 mg/kg, scopolamine 1 mg/kg) was “significant partial reversion of the amnesia induced by scopolamine; also recorded: capable of a significant reversion of the amnesia induced by scopolamine”. The “AChE inhibitory capacity ex vivo” value [9] was “remarkable anticholinesterasic activity”, the IC50 [9, 13] was 9.15 µM and 16.2 µM and 19.9 µM and the IC50 [9, 14] was 15.1 µM.
